The record followed here is US10259810B2, “N-sulfonylated pyrazolo[3,4-b]pyridin-6-carboxamides and method of use” (AbbVie S.à.r.l., priority 2015, dated 2019).

The target of assay [1] is T1, ΔF508-CFTR (Homo sapiens, UniProt P13569, DEL508-508).
T1 construct: host or cells: CFBE41o-, doxycycline-inducible
The assay is described as follows: CFTR cell surface levels using HRP-tagged ΔF508-CFTR expressing CFBE cells, in the presence of a co-corrector. Type of assay: cell-based. The settings on record: HRP-tagged ΔF508-CFTR CFBE cells, in the presence of 3 μM co-corrector; for EC50: read-out: EC50. An outline of the steps: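 Chemiluminescent read-out of surface HRP (15 min, dark) after PBS washes. Activity is normalized as 100×(sample−DMSO)/(3 μM co-corrector alone−DMSO).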

In assay [2] the target is T1, ΔF508-CFTR. The assay is described as follows: CFTR cell surface levels using HRP-tagged ΔF508-CFTR expressing CFBE cells, intrinsic corrector capacity. Type of assay: cell-based. On the set-up: % Activation: concentration or dose not given beside the values. To be noted: HRP-tagged ΔF508-CFTR expressing CFBE41o- cells, compound alone (intrinsic corrector capacity), 20 hours at 33° C.; for EC50: read-out: EC50. An outline of the steps:
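Read-out: chemiluminescent HRP activity of ECL4-HRP-tagged ΔF508-CFTR at the cell surface, 15 min substrate in dark. Normalized as 100×(sample−DMSO)/(positive control−DMSO).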

T1 sequence (P13569 with tags, fused parts or gaps DEL508-508): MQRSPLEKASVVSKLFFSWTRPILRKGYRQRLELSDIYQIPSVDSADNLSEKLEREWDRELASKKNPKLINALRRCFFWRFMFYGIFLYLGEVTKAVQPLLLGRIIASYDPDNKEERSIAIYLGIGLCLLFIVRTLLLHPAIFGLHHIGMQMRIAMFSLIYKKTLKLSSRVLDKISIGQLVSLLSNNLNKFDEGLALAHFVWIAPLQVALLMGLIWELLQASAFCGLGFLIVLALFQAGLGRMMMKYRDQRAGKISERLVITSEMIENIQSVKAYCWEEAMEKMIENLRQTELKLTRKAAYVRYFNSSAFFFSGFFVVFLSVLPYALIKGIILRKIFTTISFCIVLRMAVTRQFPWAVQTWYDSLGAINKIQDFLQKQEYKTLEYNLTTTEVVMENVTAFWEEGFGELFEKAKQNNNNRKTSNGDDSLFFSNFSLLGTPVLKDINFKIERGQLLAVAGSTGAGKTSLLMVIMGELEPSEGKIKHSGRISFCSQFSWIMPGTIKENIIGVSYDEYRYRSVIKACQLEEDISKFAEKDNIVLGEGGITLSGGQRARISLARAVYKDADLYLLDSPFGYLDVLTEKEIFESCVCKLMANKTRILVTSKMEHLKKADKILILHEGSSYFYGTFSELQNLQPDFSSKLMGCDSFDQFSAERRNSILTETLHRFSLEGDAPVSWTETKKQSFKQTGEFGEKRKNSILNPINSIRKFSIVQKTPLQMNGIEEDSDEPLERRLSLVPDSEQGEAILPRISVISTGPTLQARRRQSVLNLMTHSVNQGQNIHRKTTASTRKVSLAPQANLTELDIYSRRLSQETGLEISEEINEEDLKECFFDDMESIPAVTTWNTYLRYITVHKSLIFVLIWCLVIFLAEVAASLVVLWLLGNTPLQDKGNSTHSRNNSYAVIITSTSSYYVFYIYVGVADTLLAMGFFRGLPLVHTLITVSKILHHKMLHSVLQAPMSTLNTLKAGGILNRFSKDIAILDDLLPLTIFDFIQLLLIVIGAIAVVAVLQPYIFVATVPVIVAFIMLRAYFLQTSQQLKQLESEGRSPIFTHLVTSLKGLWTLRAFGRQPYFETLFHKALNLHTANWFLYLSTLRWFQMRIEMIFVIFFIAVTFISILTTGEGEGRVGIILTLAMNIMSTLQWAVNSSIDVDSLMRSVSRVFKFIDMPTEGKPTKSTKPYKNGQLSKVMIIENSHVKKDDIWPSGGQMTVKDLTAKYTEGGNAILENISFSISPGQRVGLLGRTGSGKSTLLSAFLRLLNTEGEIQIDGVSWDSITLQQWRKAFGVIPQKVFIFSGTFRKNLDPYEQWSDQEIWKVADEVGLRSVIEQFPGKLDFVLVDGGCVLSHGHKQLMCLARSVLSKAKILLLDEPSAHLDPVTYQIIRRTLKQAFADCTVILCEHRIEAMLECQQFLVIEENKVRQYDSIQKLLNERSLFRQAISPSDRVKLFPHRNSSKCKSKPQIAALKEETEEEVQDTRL

Take `CCS(=O)(=O)NC(=O)c1cc(-c2ccc(OC)cc2)c2c(C)nn(-c3cccc(C)c3)c2n1` [Compound 28, N-(ethanesulfonyl)-4-(4-methoxyphenyl)-3-methyl-1-(3-methylphenyl)-1H-pyrazolo[3,4-b]pyridine-6-carboxamide]: on ΔF508-CFTR [1], the “% Activation” value is 354.45% and the EC50 (in general, the midpoint of the concentration-response curve) was found to be 942 nM. Also, on ΔF508-CFTR [2], the “% Activation” value stood at 149.7% and the EC50 stood at 1220 nM.

For the compound `CC(C)c1nn(-c2cccc(N3CCOCC3)c2)c2nc(C(=O)NS(C)(=O)=O)cc(-c3cnc(N(C)C)nc3)c12` [Compound 29, 4-[2-(dimethylamino)pyrimidin-5-yl]-N-(methanesulfonyl)-1-[3-(morpholin-4-yl)phenyl]-3-(propan-2-yl)-1H-pyrazolo[3,4-b]pyridine-6-carboxamide], on ΔF508-CFTR [1], the “% Activation” value was 591.4% and the EC50 is 824 nM. On ΔF508-CFTR [2], the “% Activation” value is 328.4% and the EC50 came to 645 nM.

`CC(C)c1nn(-c2cccc(N3CCOCC3)c2)c2nc(C(=O)NS(C)(=O)=O)cc(-c3ccc(N(C)C)nc3)c12` [Compound 31, 4-[6-(dimethylamino)pyridin-3-yl]-N-(methanesulfonyl)-1-[3-(morpholin-4-yl)phenyl]-3-(propan-2-yl)-1H-pyrazolo[3,4-b]pyridine-6-carboxamide]: on ΔF508-CFTR [1], the “% Activation” value was 423.27% and the EC50 was determined as 204 nM. In addition, at ΔF508-CFTR [2], the “% Activation” value is recorded as 203.4% and the EC50 was 318 nM.

Regarding `CCS(=O)(=O)NC(=O)c1cc(-c2ccc(N(C)C)nc2)c2c(C(C)C)nn(-c3cccc(N4CCOCC4)c3)c2n1` [Compound 32, 4-[6-(dimethylamino)pyridin-3-yl]-N-(ethanesulfonyl)-1-[3-(morpholin-4-yl)phenyl]-3-(propan-2-yl)-1H-pyrazolo[3,4-b]pyridine-6-carboxamide], on ΔF508-CFTR [1], the “% Activation” value was determined as 526% and the EC50 worked out at 234 nM. Moreover, on ΔF508-CFTR [2], the “% Activation” value was found to be 277.65% and the EC50 amounted to 372 nM.

Turning to `Cc1nn(-c2ccccc2)c2nc(C(=O)NS(C)(=O)=O)cc(-c3ccc(N(C)C)cc3)c12` [Compound 33, 4-[4-(dimethylamino)phenyl]-N-(methanesulfonyl)-3-methyl-1-phenyl-1H-pyrazolo[3,4-b]pyridine-6-carboxamide], on ΔF508-CFTR [1], the “% Activation” value was 315.6% and the EC50 was found to be 471 nM. For the same compound, on ΔF508-CFTR [2], the “% Activation” value is reported as 109% and the EC50 was 2580 nM.

`CCS(=O)(=O)NC(=O)c1cc(-c2ccc(N3CCOCC3)nc2)c2c(C(C)C)nn(-c3ccccc3)c2n1` [Compound 35, N-(ethanesulfonyl)-4-[6-(morpholin-4-yl)pyridin-3-yl]-1-phenyl-3-(propan-2-yl)-1H-pyrazolo[3,4-b]pyridine-6-carboxamide]: at ΔF508-CFTR [1], the “% Activation” value stood at 509.7% and the EC50 came to 348 nM. Besides, on ΔF508-CFTR [2], the “% Activation” value was determined as 265.23% and the EC50 stood at 542 nM.

As for `COC1CN(c2cccc(-n3nc(C(C)C)c4c(-c5ccc(N6CCOCC6)cc5)cc(C(=O)NS(C)(=O)=O)nc43)c2)C1` [Compound 36, N-(methanesulfonyl)-1-[3-(3-methoxyazetidin-1-yl)phenyl]-4-[4-(morpholin-4-yl)phenyl]-3-(propan-2-yl)-1H-pyrazolo[3,4-b]pyridine-6-carboxamide], the results for the “% Activation” value on ΔF508-CFTR [1] and on ΔF508-CFTR [2] were 572.93% and 384.57%, respectively. The figures for the EC50 on ΔF508-CFTR [1] and at ΔF508-CFTR [2] were 246 nM and 416 nM, respectively.

For `Cc1nn(-c2ccccc2)c2nc(C(=O)NS(C)(=O)=O)cc(-c3ccc(N4CCOCC4)nc3)c12` [Compound 37, N-(methanesulfonyl)-3-methyl-4-[6-(morpholin-4-yl)pyridin-3-yl]-1-phenyl-1H-pyrazolo[3,4-b]pyridine-6-carboxamide], the “% Activation” value is on record as 457.25% at ΔF508-CFTR [1] and 222.85% at ΔF508-CFTR [2]. Also, the EC50 on ΔF508-CFTR [1] was 1160 nM; at ΔF508-CFTR [2], 1660 nM.

With `CC(C)c1nn(C2CCC(F)(F)CC2)c2nc(C(=O)NS(C)(=O)=O)cc(-c3ccc(N4CCOCC4)cc3)c12` [Compound 38, 1-(4,4-difluorocyclohexyl)-N-(methanesulfonyl)-4-[4-(morpholin-4-yl)phenyl]-3-(propan-2-yl)-1H-pyrazolo[3,4-b]pyridine-6-carboxamide], at ΔF508-CFTR [1], the “% Activation” value amounted to 447.7% and the EC50 was determined as 581 nM. At ΔF508-CFTR [2], the “% Activation” value is 182% and the EC50 was 850 nM.

Regarding `CC(C)c1nn(C2CCCOC2)c2nc(C(=O)NS(C)(=O)=O)cc(-c3ccc(N4CCOCC4)cc3)c12` (stereo not shown) [Compound 39, N-(methanesulfonyl)-4-[4-(morpholin-4-yl)phenyl]-1-(oxan-3-yl)-3-(propan-2-yl)-1H-pyrazolo[3,4-b]pyridine-6-carboxamide], on ΔF508-CFTR [1], the “% Activation” value is given as 378.63% and the EC50 amounted to 508 nM. On ΔF508-CFTR [2], the “% Activation” value was 143.4% and the EC50 is 838 nM.

On to `CCS(=O)(=O)NC(=O)c1cc(-c2ccc(N3CCOCC3)cc2)c2c(C(C)C)nn(C3CCCOC3)c2n1` (stereo not shown) [Compound 40, N-(ethanesulfonyl)-4-[4-(morpholin-4-yl)phenyl]-1-(oxan-3-yl)-3-(propan-2-yl)-1H-pyrazolo[3,4-b]pyridine-6-carboxamide], for which, at ΔF508-CFTR [1], the “% Activation” value is recorded as 373.43% and the EC50 worked out at 423 nM. Also, on ΔF508-CFTR [2], the “% Activation” value amounted to 147.1% and the EC50 amounted to 451 nM.

For the compound `Cc1nn(-c2ccccc2)c2nc(C(=O)NS(C)(=O)=O)cc(-c3ccc(N4CC(N(C)C)C4)cc3)c12` [Compound 41, 4-{4-[3-(dimethylamino)azetidin-1-yl]phenyl}-N-(methanesulfonyl)-3-methyl-1-phenyl-1H-pyrazolo[3,4-b]pyridine-6-carboxamide], on ΔF508-CFTR [1], the “% Activation” value turned out to be 253.3% and the EC50 turned out to be 1140 nM. Also, on ΔF508-CFTR [2], the “% Activation” value stood at 52.497% and the half-maximal effective concentration (EC50) is 817 nM.

Turning to `CCS(=O)(=O)NC(=O)c1cc(-c2ccc(N3CC(N(C)C)C3)cc2)c2c(C)nn(-c3ccccc3)c2n1` [Compound 42, 4-{4-[3-(dimethylamino)azetidin-1-yl]phenyl}-N-(ethanesulfonyl)-3-methyl-1-phenyl-1H-pyrazolo[3,4-b]pyridine-6-carboxamide], the “% Activation” value on ΔF508-CFTR [1] is 226.3%; at ΔF508-CFTR [2], 45.225%. The EC50 amounted to 378 nM on ΔF508-CFTR [1] and 2120 nM on ΔF508-CFTR [2].

As for `CC(C)c1nn(-c2cccc(N3CC(C)(C)C3)c2)c2nc(C(=O)NS(C)(=O)=O)cc(-c3ccc(N4CCOCC4)cc3)c12` [Compound 43, 1-[3-(3,3-dimethylazetidin-1-yl)phenyl]-N-(methanesulfonyl)-4-[4-(morpholin-4-yl)phenyl]-3-(propan-2-yl)-1H-pyrazolo[3,4-b]pyridine-6-carboxamide], the “% Activation” value at ΔF508-CFTR [1] stood at 627%; on ΔF508-CFTR [2] it was 379.67%. Moreover, the figures for the EC50 at ΔF508-CFTR [1] and at ΔF508-CFTR [2] were 289 nM and 299 nM, respectively.

Consider `CC(C)c1nn(C2CCCCC2)c2nc(C(=O)NS(C)(=O)=O)cc(-c3ccc(N4CCOCC4)nc3)c12` [Compound 44, 1-cyclohexyl-N-(methanesulfonyl)-4-[6-(morpholin-4-yl)pyridin-3-yl]-3-(propan-2-yl)-1H-pyrazolo[3,4-b]pyridine-6-carboxamide], for which the “% Activation” value on ΔF508-CFTR [1] is 412.63%; at ΔF508-CFTR [2] it was 203.87%. Besides, the EC50 at ΔF508-CFTR [1] was 276 nM; at ΔF508-CFTR [2], 404 nM.

Take `CCS(=O)(=O)NC(=O)c1cc(-c2ccc(N3CCOCC3)cc2)c2c(C(C)C)nn(C3CCCCC3)c2n1` [Compound 45, 1-cyclohexyl-N-(ethanesulfonyl)-4-[4-(morpholin-4-yl)phenyl]-3-(propan-2-yl)-1H-pyrazolo[3,4-b]pyridine-6-carboxamide]: on ΔF508-CFTR [1], the “% Activation” value was found to be 438.4% and the EC50 is 203 nM. At ΔF508-CFTR [2], the “% Activation” value is on record as 210.97% and the EC50 was determined as 327 nM.

As to `CC(C)c1nn(-c2cccc(N3CCC(F)C3)c2)c2nc(C(=O)NS(C)(=O)=O)cc(-c3ccc(N4CCOCC4)cc3)c12` (stereo not shown) [Compound 46, 1-[3-(3-fluoropyrrolidin-1-yl)phenyl]-N-(methanesulfonyl)-4-[4-(morpholin-4-yl)phenyl]-3-(propan-2-yl)-1H-pyrazolo[3,4-b]pyridine-6-carboxamide], at ΔF508-CFTR [1], the “% Activation” value was 643.27% and the EC50 was 446 nM. Also, on ΔF508-CFTR [2], the “% Activation” value was 457.3% and the EC50 is 706 nM.

Take `Cc1nn(C2CCCCC2)c2nc(C(=O)NS(C)(=O)=O)cc(-c3ccc(N4CCOCC4)nc3)c12` [Compound 47, 1-cyclohexyl-N-(methanesulfonyl)-3-methyl-4-[6-(morpholin-4-yl)pyridin-3-yl]-1H-pyrazolo[3,4-b]pyridine-6-carboxamide]: the “% Activation” value is reported as 408.77% at ΔF508-CFTR [1] and 169.73% at ΔF508-CFTR [2]. For the same compound, the EC50 on ΔF508-CFTR [1] was 1600 nM; on ΔF508-CFTR [2] it was 1860 nM.

On to `CCS(=O)(=O)NC(=O)c1cc(-c2ccc(N3CCOCC3)nc2)c2c(C)nn(C3CCCCC3)c2n1` [Compound 48, 1-cyclohexyl-N-(ethanesulfonyl)-3-methyl-4-[6-(morpholin-4-yl)pyridin-3-yl]-1H-pyrazolo[3,4-b]pyridine-6-carboxamide], for which, at ΔF508-CFTR [1], the “% Activation” value is 417.8% and the EC50 is 1150 nM. On ΔF508-CFTR [2], the “% Activation” value is given as 160.9% and the EC50 was found to be 1200 nM.
